These results are taken from ChEMBL document CHEMBL4422652, “Synthesis and biological evaluation of novel oleanolic acid analogues as potential α-glucosidase inhibitors” (Eur J Med Chem, 2019).

Data set [1] concerns Mus musculus. In words: Hypoglycemic activity in streptozocin-induced diabetic Kunming mouse assessed as reduction in blood glucose level at 50 mg/kg, po treated 30 mins prior to glucose challenge and measured up to 210 mins by OGTT. In kind it is functional, organism-based.
A short description of data set [2]: Inhibition of baker's yeast alpha-glucosidase using phenol-alphaD-glycopyranoside as substrate preincubated for 10 mins followed by substrate addition and measured after 30 mins. The arrangement: species or system Saccharomyces cerevisiae.
The subject of data set [3] is Mus musculus. Description: Hypoglycemic activity in streptozocin-induced diabetic Kunming mouse assessed as blood glucose level at 50 mg/kg, po administered once daily for 18 days measured on day 1 post dose (reference value: 18.86 +/- 0.7 mM). In kind it is functional.
Data set [4] deals with Mus musculus. In words: Hypoglycemic activity in streptozocin-induced diabetic Kunming mouse assessed as reduction in blood glucose AUC at 50 mg/kg, po treated 30 mins prior to glucose challenge and measured up to 210 mins by OGTT. In kind it is functional, organism-based.
For another data set, the system named is Saccharomyces cerevisiae. Description: Non-competitive inhibition of baker's yeast alpha-glucosidase assessed as Km for substrate using varying levels of phenol-alphaD-glycopyranoside as substrate preincubated for 10 mins followed by substrate addition and measured after 30 mins by double reciprocal plot analysis.
Data set [5] has as its system Mus musculus. In words: Hypoglycemic activity in streptozocin-induced diabetic Kunming mouse assessed as blood glucose level at 50 mg/kg, po administered once daily for 18 days measured on day 6 post dose (reference value: 22.31 +/- 1.05 mM). In kind it is functional.
Data set [6] is described as follows: Toxicity in streptozocin-induced diabetic Kunming mouse assessed as effect on body weight at 50 mg/kg, po administered once daily for 18 days measured every 6 days starting from day 1 during compound dosing. It counts as organism-based. The settings on record: in vivo.
Data set [7] can be described thus: Non-competitive inhibition of baker's yeast alpha-glucosidase using varying levels of phenol-alphaD-glycopyranoside as substrate preincubated for 10 mins followed by substrate addition and measured after 30 mins by double reciprocal plot analysis. The arrangement: species or system Saccharomyces cerevisiae.
Data set [8] has as its system Mus musculus. Description: Hypoglycemic activity in streptozocin-induced diabetic Kunming mouse assessed as reduction in blood glucose level at 50 mg/kg, po measured at 7 hrs post dose. It counts as functional, organism-based.
Data set [9] relates to Mus musculus. In words: Hypoglycemic activity in streptozocin-induced diabetic Kunming mouse assessed as blood glucose level at 50 mg/kg, po administered once daily for 18 days measured on day 12 post dose (reference value: 23.09 +/- 1.45 mM). In kind it is functional.
Data set [10] relates to Mus musculus. In words: Hypoglycemic activity in streptozocin-induced diabetic Kunming mouse assessed as blood glucose level at 50 mg/kg, po administered once daily for 18 days measured on day 12 post dose (reference value: 23.27 +/- 1.03 mM). It counts as functional.
The test system of the next data set is NIH3T3. In words: Cytotoxicity against mouse 3T3 cells assessed as growth inhibition measured after 48 hrs by MTT assay. It counts as cell-based. The conditions noted are these: NIH3T3, 48 h. On the technique in general: Tetrazolium assays rely on reduction of a dye to a coloured formazan, in cell work by metabolically active cells.
Data set [11] can be described thus: Inhibition of baker's yeast alpha-glucosidase using PNPG as substrate preincubated for 15 mins followed by substrate addition and measured after 5 mins by spectrophotometric method. Details: species or system Saccharomyces cerevisiae.
Data set [12] can be described thus: Inhibition of baker's yeast alpha-glucosidase using PNPG as substrate after 10 mins by spectrophotometric method. The arrangement: species or system Saccharomyces cerevisiae.

Molecules are shown by their SMILES. Activity calls are given as the source filed them. The rule behind the calls is not given here.

By IC50 is commonly meant the point on the concentration scale where inhibition reaches its midpoint. A word on the Km: it is the substrate concentration at which the rate is half of its maximum. As a reminder, the Ki is the dissociation constant of the complex between target and ligand, obtained from inhibition or displacement. Higher therefore signals a looser hold on the target. As for `COc1ccc(/C=C2\C[C@]3(C)[C@H]4C[C@@H](F)[C@]56OC(=O)[C@@]7(CCC(C)(C)C[C@H]75)CC[C@@]6(C)[C@]4(C)CC[C@H]3C(C)(C)C2=O)cc1`, the result in the data set on Mus musculus [1], in the data set on Mus musculus [4] and in the data set on Mus musculus [8] was Active. Moreover, the IC50 in data set [2] was 330 nM; in the data set on NIH3T3, more than 300000 nM. Further, the Activity is 18.61 mM with Mus musculus [3]; 19.96 mM in the data set with Mus musculus [5]; “Non-Toxic” in [6]; 17.49 mM with Mus musculus [9]; 13.74 mM in the data set with Mus musculus [10]. Also, the Km with Saccharomyces cerevisiae worked out at 120 µM. Further, affinity in [7] was put at a Ki of 520 nM.
In turn, `CC1(C)CC[C@]2(C(=O)Oc3ccc(C(=O)/C=C/c4ccc(Br)cc4)cc3)CC[C@]3(C)C(=CC[C@@H]4[C@@]5(C)CCC(=O)C(C)(C)[C@@H]5CC[C@]43C)[C@@H]2C1` yielded an IC50 in data set [11] of 2200 nM.
Take `CC1(C)CC[C@@]23CC[C@]4(C)[C@](OC2=O)([C@H](F)C[C@@H]2[C@@]5(C)C/C(=C\c6ccc(C(F)(F)F)cc6)C(=O)C(C)(C)[C@@H]5CC[C@]24C)[C@@H]3C1`: the IC50 in [12] turned out to be 1900 nM; in data set [2], 1510 nM.
